Source: publication PMC4972190, “In vitro activity of salinomycin and monensin derivatives against Trypanosoma brucei” (Parasites & Vectors, 2016)
≈ marks a conversion by molar mass, not a printed value. Like-named read-outs stand apart in the source and are kept apart here.

Legend:
[1] = tested on: Bloodstream forms of T. brucei (clone 427-221a); experiment: Toxicity assay (resazurin, 72 h) on bloodstream forms of T. brucei; assay type: cell-based, Trypanosoma brucei; conditions: for Selectivity GI50 ratio: GI50(HL-60)/GI50(T. brucei); for Selectivity MIC ratio: MIC(HL-60)/MIC(T. brucei); for GI50 / MIC: 72 h; for MIC: concentration at which all cells were killed, determined microscopically, mean of three experiments
Experimental: (§1) Bloodstream forms of T. brucei (clone 427-221a) and human myeloid leukaemia HL-60 cells were grown in Baltz medium and RPMI medium, respectively. Both culture media were supplemented with 16.7 % (v/v) heat-inactivated foetal calf serum. All cultures were maintained in a humidified atmosphere containing 5 % CO2 at 37 °C.
(§2) Cells were seeded in 96-well plates in a final volume of 200 μl of their respective culture medium containing 10-fold serial dilutions of ionophore derivatives (10^-4 to 10^-10 M) and 1 % DMSO. Wells containing medium and 1 % DMSO served as controls. The initial cell densities were 1 × 10^4/ml for T. brucei and 1 × 10^5/ml for HL-60 cells. After 24 h incubation at 37 °C in a humidified atmosphere containing 5 % CO2, 20 μl of a 0.44 mM resazurin solution prepared in PBS was added and the cells were incubated for a further 48 h so that the total incubation time was 72 h. Thereafter, the plates were read on a microplate reader using a test wavelength of 570 nm and a reference wavelength of 630 nm. The 50 % growth inhibition (GI50) value, i.e. the concentration of a compound necessary to reduce the growth rate of cells by 50 % compared to the control was determined by linear interpolation according to the method described in [22]. The minimum inhibitory concentration (MIC) values, i.e. the concentration of the drug at which all trypanosome and human cells were killed, was determined microscopically. Each compound was independently tested three times.

[2] = tested on: human myeloid leukaemia HL-60 cells; experiment: Toxicity assay (resazurin, 72 h) on HL-60 cells; assay type: cell-based; conditions: for MIC: determined microscopically, mean of three experiments; for GI50: Homo sapiens
Experimental: as §1, §2

[3] = tested on: bloodstream forms of T. brucei; experiment: Measurement of changes in cell volume by light scattering; assay type: cell-based, Trypanosoma brucei; conditions: 100 μM; 5 × 10^7 cells/ml; measured every 15 min; decrease in absorbance = increase in cell volume
Experimental: Change in cell volume was determined by light scattering as previously described. In brief, bloodstream forms of T. brucei were seeded at a density of 5 × 10^7 cells/ml in 96-well plates in a final volume of 200 μl culture medium containing 100 μM of salinomycin or the salonimycin derivatives SAL-E7 or SAL-AM2 and 1 % DMSO. Absorbance of the cultures was measured at 490 nm every 15 min. A decrease in absorbance corresponded to an increase in cell volume. The experiment was repeated three times.
Change in cell volume can be measured by light scattering at 450–550 nm whereby a decrease in absorbance indicates swelling of cells. In order to be able to record measurable absorbance changes, a high cell density is required. […] However, the derivatives caused a slightly faster swelling of the cells than salinomyicn. […] During further incubation, trypanosomes increased their cell volume but cell swelling was much slower and much less. […] However, it seems that the transport efficiency determines the trypanocidal potency of salinomycin derivatives.
Fig. 3 Effect of salinomycin derivatives on the cell volume of bloodstream forms of T. brucei. […] Every 15 min, the absorbance at 490 nm was measured. […] Note that a decrease in absorbance corresponds to an increase in cell volume

[4] = Trypanosoma brucei, T. brucei bloodstream forms
[5] = Trypanosoma brucei, T. brucei bloodstream forms, read-out: MIC
[6] = Trypanosoma brucei, T. brucei bloodstream forms, resazurin, mean ± SD of three experiments, read-out: GI50
[7] = HL-60 cells, 72 h, resazurin, mean ± SD of three experiments, read-out: GI50

| Structure (SMILES) | Selectivity GI50 ratio [1] | Selectivity MIC ratio [1] | GI50 ([1]; Trypanosoma brucei) [µM] | MIC [1, 4] [µM] | MIC ([2]; HL-60 cells, 72 h) [µM] | GI50 ([2]; HL-60, 72 h) [µM] | MIC [1, 5] [µM] | GI50 [1, 6] [µM] | GI50 [2, 7] [µM] | MIC ([1]; T. brucei bloodstream forms) [µM] | MIC ([1]; T. brucei bloodstream forms, listed as salinomycin n-butyl amide) | MIC ([1]; T. brucei bloodstream forms, read-out: MIC) [µM] | Effect on cell volume (absorbance at 490 nm) [3] |
| --- | --- | --- | --- | --- | --- | --- | --- | --- | --- | --- | --- | --- | --- |
| CCC1(C2OC(C3OC(O)(CO)C(C)CC3C)CC2C)CCC(C2(C)CCC3(CC(O)C(C)C(C(C)C(OC)C(C)C(=O)OC)O3)O2)O1 (stereo not shown) [MON-E1] | 11.1 | 10 | 3.06 ± 0.06 | 10 (≈ 6.85 µg/mL) | 100 (≈ 68.5 µg/mL) | 34.1 ± 2.2 |  |  |  |  |  |  |  |
| CCC1(C2OC(C3OC(O)(CO)C(C)CC3C)CC2C)CCC(C2(C)CCC3(CC(O)C(C)C(C(C)C(OC)C(C)C(=O)OCCO)O3)O2)O1 (stereo not shown) [MON-E2] | 9.2 | 10 | 2.76 ± 0.1 | 10 (≈ 7.15 µg/mL) | 100 (≈ 71.5 µg/mL) | 25.3 ± 5 |  |  |  |  |  |  |  |
| CCC1(C2OC(C3OC(O)(CO)C(C)CC3C)CC2C)CCC(C2(C)CCC3(CC(O)C(C)C(C(C)C(OC)C(C)C(=O)OCCOCCOC)O3)O2)O1 (stereo not shown) [MON-E3] | 12.1 | 10 | 1.68 ± 0.56 | 10 (≈ 7.73 µg/mL) | 100 (≈ 77.3 µg/mL) | 20.3 ± 3.1 |  |  |  |  |  |  |  |
| C=CCNC(=O)OCC1(O)OC(C2CC(C)C(C3(CC)CCC(C4(C)CCC5(CC(O)C(C)C(C(C)C(OC)C(C)C(=O)O)O5)O4)O3)O2)C(C)CC1C (stereo not shown) [MON-UR1] | 75 | 100 | 0.31 ± 0.06 | 1 (≈ 0.754 µg/mL) | 100 (≈ 75.4 µg/mL) | 23.3 ± 6.6 |  |  |  |  |  |  |  |
| CC[C@@]1([C@@H]2O[C@@H]([C@H]3O[C@@](O)(CO)[C@H](C)C[C@@H]3C)C[C@@H]2C)CC[C@H]([C@]2(C)CC[C@]3(C[C@H](O)[C@@H](C)[C@@H]([C@@H](C)[C@@H](OC)[C@H](C)C(=O)O)O3)O2)O1 [Monensin, monensin] | 51 | 100 |  |  | 10 (≈ 6.71 µg/mL) |  | 0.1 (≈ 0.0671 µg/mL) | 0.029 ± 0.002 | 1.48 ± 0.56 |  |  |  |  |
| C=CCNC(=O)C(CC)C1CCC(C)C(C(C)C(O)C(C)C(=O)C(CC)C2OC3(C=CC(O)C4(CCC(C)(C5CCC(O)(CC)C(C)O5)O4)O3)C(C)CC2C)O1 (stereo not shown) [SAL-AM1] | 12.0 | 10 | 3.23 ± 0.21 | 10 (≈ 7.9 µg/mL) | 100 (≈ 79 µg/mL) | 38.9 ± 3.2 |  |  |  |  |  |  |  |
| CCCCNC(=O)C(CC)C1CCC(C)C(C(C)C(O)C(C)C(=O)C(CC)C2OC3(C=CC(O)C4(CCC(C)(C5CCC(O)(CC)C(C)O5)O4)O3)C(C)CC2C)O1 (stereo not shown) [SAL-AM2, salinomycin n-butyl amide] | greater than 250 |  | 0.04 ± 0.007 |  | 100 (≈ 80.6 µg/mL) | 14.5 ± 1.3 |  |  |  | 0.1 to 1 | below 1 μM | 0.1 (≈ 0.0806 µg/mL) | cell swelling similar to parasites treated with salinomycin |
| CCC(C(=O)NCc1ccccc1)C1CCC(C)C(C(C)C(O)C(C)C(=O)C(CC)C2OC3(C=CC(O)C4(CCC(C)(C5CCC(O)(CC)C(C)O5)O4)O3)C(C)CC2C)O1 (stereo not shown) [SAL-AM3] | 2.7 | 10 | 2.94 ± 0.2 | 10 (≈ 8.4 µg/mL) | 100 (≈ 84 µg/mL) | 7.92 ± 1.95 |  |  |  |  |  |  |  |
| CCC(C(=O)NCCc1c[nH]c2ccccc12)C1CCC(C)C(C(C)C(O)C(C)C(=O)C(CC)C2OC3(C=CC(O)C4(CCC(C)(C5CCC(O)(CC)C(C)O5)O4)O3)C(C)CC2C)O1 (stereo not shown) [SAL-AM4] | 9.1 | 10 | 2.69 ± 0.51 | 10 (≈ 8.93 µg/mL) | 100 (≈ 89.3 µg/mL) | 24.5 ± 3.7 |  |  |  |  |  |  |  |
| CCC(C(=O)NCCc1ccc(F)cc1)C1CCC(C)C(C(C)C(O)C(C)C(=O)C(CC)C2OC3(C=CC(O)C4(CCC(C)(C5CCC(O)(CC)C(C)O5)O4)O3)C(C)CC2C)O1 (stereo not shown) [SAL-AM5] | 14.6 | 10 | 2.69 ± 0.2 | 10 (≈ 8.72 µg/mL) | 100 (≈ 87.2 µg/mL) | 39.2 ± 1.6 |  |  |  |  |  |  |  |
| CCC(C(=O)OC)C1CCC(C)C(C(C)C(O)C(C)C(=O)C(CC)C2OC3(C=CC(O)C4(CCC(C)(C5CCC(O)(CC)C(C)O5)O4)O3)C(C)CC2C)O1 (stereo not shown) [SAL-E1] | 11.4 | 10 | 3.08 ± 0.18 | 10 (≈ 7.65 µg/mL) | 100 (≈ 76.5 µg/mL) | 35.5 ± 2.4 |  |  |  |  |  |  |  |
| CCC(C(=O)OCCO)C1CCC(C)C(C(C)C(O)C(C)C(=O)C(CC)C2OC3(C=CC(O)C4(CCC(C)(C5CCC(O)(CC)C(C)O5)O4)O3)C(C)CC2C)O1 (stereo not shown) [SAL-E2] | 10.6 | 10 | 3.25 ± 0.26 | 10 (≈ 7.95 µg/mL) | 100 (≈ 79.5 µg/mL) | 34.6 ± 1.9 |  |  |  |  |  |  |  |
| C=CCOC(=O)C(CC)C1CCC(C)C(C(C)C(O)C(C)C(=O)C(CC)C2OC3(C=CC(O)C4(CCC(C)(C5CCC(O)(CC)C(C)O5)O4)O3)C(C)CC2C)O1 (stereo not shown) [SAL-E3] | 10.9 | 10 | 3.1 ± 0.21 | 10 (≈ 7.91 µg/mL) | 100 (≈ 79.1 µg/mL) | 33.8 ± 3.5 |  |  |  |  |  |  |  |
| CCCCOC(=O)C(CC)C1CCC(C)C(C(C)C(O)C(C)C(=O)C(CC)C2OC3(C=CC(O)C4(CCC(C)(C5CCC(O)(CC)C(C)O5)O4)O3)C(C)CC2C)O1 (stereo not shown) [SAL-E4] | 10.5 | 10 | 3.12 ± 0.08 | 10 (≈ 8.07 µg/mL) | 100 (≈ 80.7 µg/mL) | 32.9 ± 2.5 |  |  |  |  |  |  |  |
| CCC(C(=O)OCc1ccccc1)C1CCC(C)C(C(C)C(O)C(C)C(=O)C(CC)C2OC3(C=CC(O)C4(CCC(C)(C5CCC(O)(CC)C(C)O5)O4)O3)C(C)CC2C)O1 (stereo not shown) [SAL-E5] |  | 10 | 3.21 ± 0.02 | 10 (≈ 8.41 µg/mL) | 100 (≈ 84.1 µg/mL) | 38.4 ± 4.2 |  |  |  |  |  |  |  |
| Cc1ccc(C(=O)Nc2ccc(S(=O)(=O)O)c3cc(S(=O)(=O)O)cc(S(=O)(=O)O)c23)cc1NC(=O)c1cccc(NC(=O)Nc2cccc(C(=O)Nc3cc(C(=O)Nc4ccc(S(=O)(=O)O)c5cc(S(=O)(=O)O)cc(S(=O)(=O)O)c45)ccc3C)c2)c1 [Suramin, suramin, reference compound] | > 2857 | > 1000 |  |  | > 100 |  | 0.1 (≈ 0.13 µg/mL) | 0.035 ± 0.002 | > 100 |  |  |  |  |
